Test results as given in patent publication US7038106B1, “Detection of neural activity” (The University Court of the University of Glasgow, priority 1998, dated 2006).
“Also recorded” adds a separate entry of the source. Read-outs that look alike come from different tables or passages of the source.

Legend:
[1] = test system: Honeybee KCs calcium current; conditions: cited from earlier work
[2] = test system: mushroom bodies (Kenyon cells) of Drosophila adult brain; test: Aequorin luminometry of endogenous intracellular calcium oscillation in intact Drosophila brain (GAL4-aeq lines); assay type: cell-based; conditions: for Effect on oscillation amplitude and period/frequency: concentration not given; for EC50: Drosophila melanogaster, read-out: EC50 for reduction of oscillation amplitude
[3] = test system: Honeybee KCs delayed rectifier-type current; conditions: cited from earlier work

Question: With `COc1ccc(CCN(C)CCCC(C#N)(c2ccc(OC)c(OC)c2)C(C)C)cc1OC` (stereo not shown) [Verapamil] as the compound, how does the “Effect on calcium current” value [1] read?
Answer: The value was “affected”.

Question: For Picrotoxin [Pierotoxin], which “Effect on oscillation amplitude and period/frequency” value [2] is on record?
Answer: Its value is “opposite effects”.

Question: For `Nc1c2c(nc3ccccc13)CCCC2` [Tacrine], which EC50 ([2]; dose-response curves from amplitudes measured before and after treatment, 117Y-aeq adult brains) is on record?
Answer: The EC50 was about 1 µM.

Question: What about the “Effect on oscillation amplitude and period/frequency” value [2] of the same compound?
Answer: The value was “reduce both oscillation amplitude and frequency”.

Question: Which “Sensitivity of delayed rectifier-type current” value [3] does the source give for `CC(=O)[O-].CC[N+](CC)(CC)CC` [TEA, tetraethylammonium acetate] here?
Answer: Its value is “only weakly sensitive”.

Question: What about the Effect on oscillation [2] of the same compound?
Answer: The Effect on oscillation was “eliminate oscillations”.

Question: And the EC50 [2]?
Answer: The EC50 was about 70 µM.

Question: With `Nc1ccncc1` [4-aminopyridine] as the compound, how does the “Sensitivity of oscillation in Sh5 background relative to Sh+ control (less sensitive)” value [2] read?
Answer: The value was 10 fold.

Question: And the EC50 ([2]; dose-response curves from amplitudes measured before and after treatment, […])?
Answer: The EC50 was about 30 µM.

Question: What about the “Effect on oscillation frequency / period” value ([2]; concentration not stated or dose-dependent) of the same compound?
Answer: Its value is “dose-dependent reduction of oscillation period”.

Question: What about the “Effect on oscillation amplitude” value ([2]; concentration not stated or dose-dependent, […]) of the same compound?
Answer: The value was “reduce oscillation amplitude in a dose-dependent manner”.

Question: For `NC1=N[C@H](O)[C@H]2[C@H]3O[C@]4(O)O[C@@H]([C@@H](O)[C@@]2(N1)[C@@H]4O)[C@]3(O)CO` [Tetrodotoxin], which Effect on oscillation [2] is on record?
Answer: Its Effect on oscillation is “cessation of oscillation within a few cycles of application; also recorded: oscillation resumes in the form of a series of spaced bursts of very high relative amplitude”.

Question: Which Effect on oscillation ([2]; 1 mM, cAMP pathway) does the source give for `CCCC(=O)Nc1ncnc2c1ncn2[C@@H]1O[C@@H]2COP(=O)(O)O[C@H]2[C@H]1OC(=O)CCC` [dibutyryl cAMP] here?
Answer: Its Effect on oscillation is “ineffective”.

Question: With `[Co]` [Cobalt] as the compound, how does the Effect on oscillation ([2]; 1–10 mM range) read?
Answer: Its Effect on oscillation is “gradual dampening effect on oscillation”.

Question: With `NCCCC(=O)O` [GABA] as the compound, how does the “Effect on oscillation amplitude and period” value ([2]; 1 mM) read?
Answer: Its value is “increases both amplitude and period”.

Question: What about the “Effect on oscillation amplitude and period/frequency” value [2] of the same compound?
Answer: The value was “increases both amplitude and period”.

Question: For `CN1CCCC1c1cccnc1` (stereo not shown) [Nicotine], which Effect on oscillation [2] is on record?
Answer: Its Effect on oscillation is “complete abolition of oscillation”.

Question: For `O=C(O)CN(CCOCCOCCN(CC(=O)O)CC(=O)O)CC(=O)O` [EGTA], which Effect on oscillation ([2]; 1 mM, removal of external calcium) is on record?
Answer: Its Effect on oscillation is “Oscillation ceases”.

Question: Which “Effect on delayed rectifier-type current” value ([3]; 100 μM) does the source give for `C=C[C@H]1C[N@@]2CC[C@H]1C[C@@H]2[C@@H](O)c1ccnc2ccc(OC)cc12` [Quinidine] here?
Answer: Its value is “blocked”.
